Here are results for 61 compounds from patent publication US20250136556A1, “NOVEL MODULATORS OF THE ARYL HYDROCARBON RECEPTOR AND METHODS OF USE THEREOF” (Allianthera (Suzhou) Biopharmaceutical Co., Ltd., priority 2021, published 2025).

This experiment addresses T1, Human Aryl Hydrocarbon Receptor (AHR) (Homo sapiens, UniProt P35869).
T1 construct: purchased INDIGO Bioscience IB06001-32; host or cells: AHR Reporter Cell (proprietary kit cells)
T1 sequence (P35869 11-848): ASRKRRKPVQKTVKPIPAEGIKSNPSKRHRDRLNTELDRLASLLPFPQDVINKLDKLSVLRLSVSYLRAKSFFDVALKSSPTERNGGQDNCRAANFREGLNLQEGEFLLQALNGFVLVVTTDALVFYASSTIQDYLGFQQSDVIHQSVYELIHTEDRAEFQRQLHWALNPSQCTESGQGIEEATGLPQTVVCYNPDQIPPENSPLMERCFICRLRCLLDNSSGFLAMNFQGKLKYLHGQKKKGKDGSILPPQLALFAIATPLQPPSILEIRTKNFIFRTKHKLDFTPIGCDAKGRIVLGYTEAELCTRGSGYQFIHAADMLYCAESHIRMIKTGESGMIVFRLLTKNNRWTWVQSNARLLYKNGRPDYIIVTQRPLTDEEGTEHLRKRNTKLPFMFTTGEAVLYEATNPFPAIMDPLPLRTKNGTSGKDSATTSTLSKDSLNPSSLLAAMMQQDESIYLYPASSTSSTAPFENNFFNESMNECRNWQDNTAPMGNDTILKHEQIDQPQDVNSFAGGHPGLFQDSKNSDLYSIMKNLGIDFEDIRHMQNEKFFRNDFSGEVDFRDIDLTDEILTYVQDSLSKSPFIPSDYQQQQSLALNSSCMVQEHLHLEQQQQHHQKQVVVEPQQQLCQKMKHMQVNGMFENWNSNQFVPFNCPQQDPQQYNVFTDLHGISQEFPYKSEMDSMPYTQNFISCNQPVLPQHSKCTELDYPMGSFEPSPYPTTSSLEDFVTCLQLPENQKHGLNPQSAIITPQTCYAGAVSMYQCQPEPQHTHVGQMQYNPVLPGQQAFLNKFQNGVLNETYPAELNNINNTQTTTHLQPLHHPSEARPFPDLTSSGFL
Kind of experiment: AHR agonist reporter assay in human cell line (INDIGO luciferase reporter).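 Also: firefly luciferase luminescence read on a plate reader, values normalized against positive and negative controls.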 It counts as cell-based. The following applies: reporter cells, 24 hours incubation, second line of cell; read-out: AHR abEC50. A general note: Reporter assays use an easily measured gene product as a stand-in for the process of interest.

Procedure: The AHR reporter assay was performed following the protocol of the Human Aryl Hydrocarbon Receptor (AHR) Reporter Assay System (INDIGO Bioscience, #IB06001-32). AHR Reporter Cell was thawed and pre-incubated in Cell Recovery Medium (CRM) for 6 hours. […] Following 24 hours incubation, the media was removed and Luciferase Detection Reagent (LDR) added. The firefly luciferase activity was quantified using a plate reader. Results were normalized by positive and negative controls.

In the case of `CC(C)c1c(O)cc(-c2cncc3ccc(F)cc23)cc1O` [Compound 32], the EC50 was > 100 nM.

For the compound `CC(C)c1c(O)cc(-c2ccc3nccnc3c2)cc1O` [Compound 40], the EC50 was > 100 nM.

Turning to `CC(C)c1c(O)cc([S+]([O-])c2ccccc2)cc1O` (stereo not shown) [Compound 130, 2-isopropyl-5-(phenylsulfinyl) benzene-1,3-diol], the EC50 was > 400 nM.

As for `CC(C)c1ncc(-c2cc3ccccc3nc2C#N)cc1O` [Compound 79], the EC50 is > 100 nM.

Regarding `FC(F)(F)c1ccc(Nc2nccc(-c3cccc(Cl)c3)n2)cc1` [Reference, reference compound], the EC50 is 17.1 nM.

For `CC(C)c1c(O)cc(-c2ccnc3c(Cl)cccc23)cc1O` [Compound 17], the EC50 was > 100 nM.

In the case of `CC(C)c1c(O)cc(-c2ccnc3ccc(F)cc23)cc1O` [Compound 4], the EC50 was > 100 nM.

On to `CC(C)c1ncc(-c2ccc3nccc(F)c3c2)cc1O` [Compound 59], for which the EC50 was > 100 nM.

Turning to `CC(C)c1ncc(-c2cc3cccnc3cc2F)cc1O` [Compound 58], the EC50 was > 100 nM.

In the case of `CC(C)c1c(O)cc(-c2cc(F)c3ncccc3c2)cc1O` [Compound 6], the EC50 was determined as 109 nM.

In the case of `CC(C)c1c(O)cc(-c2cnc3c(C(F)(F)F)cccc3c2)cc1O` [Compound 51], the EC50 amounted to 90 nM.

With `CC(C)c1c(O)cc(-c2ccc3nccc(F)c3c2)cc1O` [Compound 8], the EC50 is > 100 nM.

For `CC(C)c1c(O)cc(-c2cccc3cc(F)c(O)nc23)cc1O` [Compound 5], the EC50 stood at 78.7 nM.

Turning to `COc1ccc2ccc(-c3cnc(C(C)C)c(O)c3)cc2n1` [Compound 78], the EC50 was > 100 nM.

On to `CC(C)c1ncc(-c2cc3cnccc3cc2F)cc1O` [Compound 85], for which the EC50 was > 100 nM.

In the case of `COc1ccc2ccc(-c3cc(O)c(C(C)C)c(O)c3)cc2n1` [Compound 27], the EC50 is > 100 nM.

For `CC(C)c1c(O)cc(-c2ccc3nccc(C#N)c3c2)cc1O` [Compound 30], the EC50 is > 100 nM.

Consider `CC(C)c1ncc(-c2ncnc3ccccc23)cc1O` [Compound 92], for which the EC50 is > 100 nM.

Regarding `CC(C)c1c(O)cc(-c2cc(C(F)(F)F)c3cc(F)ccc3n2)cc1O` [Compound 1], the EC50 was determined as 25.2 nM.

In the case of `CC(C)c1c(O)cc(-c2ccc(F)c3ccc(C(F)(F)F)nc23)cc1O` [Compound 13], the EC50 was > 100 nM.

In the case of `CC(C)c1ncc(-c2ccc3ncccc3c2F)cc1O` [Compound 61], the EC50 is > 100 nM.

Consider `CC(C)c1c(O)cc(-c2c(Cl)cc3c(O)ncnc3c2F)cc1O` [Compound 38], for which the EC50 is > 100 nM.

With `CC(C)c1c(O)cc(-c2cnc3c(F)cc(N)cc3c2)cc1O` [Compound 2], the EC50 was > 100 nM.

Turning to `CC(C)c1ncc(-c2cnc3c(F)c(F)ccc3c2)cc1O` [Compound 96], the EC50 is > 100 nM.

With `CC(C)c1c(O)cc(-c2cc(F)c3nccnc3c2)cc1O` [Compound 36], the EC50 was > 100 nM.

For `CC(C)c1c(O)cc(S(=O)(=O)c2ccccc2)cc1O` [Compound 131, 2-isopropyl-5-(phenylsulfonyl)benzene-1,3-diol], the EC50 is > 400 nM.

In the case of `COc1cc(-c2cc(O)c(C(C)C)c(O)c2)cc2cccnc12` [Compound 18], the EC50 is > 100 nM.

As for `CC(C)c1ncc(-c2ccnc3c(Cl)cccc23)cc1O` [Compound 68], the EC50 is > 100 nM.

Consider `CC(C)c1c(O)cc(-c2cc3cnccc3cc2F)cc1O` [Compound 34], for which the EC50 is > 100 nM.

In the case of `Cc1ccnc2cc(-c3cnc(C(C)C)c(O)c3)ccc12` [Compound 73], the EC50 was > 100 nM.

Consider `CC(C)c1c(O)cc(-c2nccc3cccnc23)cc1O` [Compound 44], for which the EC50 is > 100 nM.

`CC(C)c1ncc(-c2nccc3cccnc23)cc1O` [Compound 95]: the EC50 is > 100 nM.

In the case of `CC(C)c1c(O)cc(-c2ccc3ncccc3c2F)cc1O` [Compound 10], the EC50 is 33.4 nM.

As for `CC(C)c1ncc(-c2ccc3nccc(C#N)c3c2)cc1O` [Compound 81], the EC50 was > 100 nM.

Regarding `COc1cc(-c2cnc(C(C)C)c(O)c2)cc2cccnc12` [Compound 69], the EC50 was > 100 nM.

Regarding `CC(C)c1ncc(-c2ccc3nccnc3c2)cc1O` [Compound 91], the EC50 was > 100 nM.

As for `CC(C)c1c(O)cc(-c2cc(F)c3ncccc3c2F)cc1O` [Compound 12], the EC50 was > 100 nM.

As for `CC(C)c1nc2c(cc1O)CC(c1ccccc1)O2` (stereo not shown) [Compound 127, 6-isopropyl-2-phenyl-2H,3H-furo[2,3-b]pyridin-5-ol], the EC50 is > 100 nM.

For `CC(C)c1ncc(-c2cc(F)c3ncccc3c2)cc1O` [Compound 57], the EC50 is > 100 nM.

Take `CC(C)c1ncc(/C=C/c2ccccn2)cc1O` [Compound 136]: the EC50 was > 100 nM.

Turning to `CC(C)c1ncc(-c2ccc3cc(F)ccc3n2)cc1O` [Compound 60], the EC50 was > 100 nM.

In the case of `CC(C)c1c(O)cc(-c2ccc3cc(F)ccc3n2)cc1O` [Compound 9], the EC50 is 20.9 nM.

For the compound `CC(C)c1ncc(-c2cccc3ncccc23)cc1O` [Compound 71], the EC50 was > 100 nM.

On to `CC(C)c1onc(/C=C/c2ccccc2)c1O` [Compound 109, 5-isopropyl-3-[(E)-2-phenylethenyl]-1,2-oxazol-4-ol], for which the EC50 is > 100 nM.

With `CC(C)c1ncc(-c2cc(F)c3cnc(N)nc3c2)cc1O` [Compound 90], the EC50 was > 100 nM.

`COc1cc(/C=C/c2ccccc2)cc(O)c1C(C)C` [Compound 137]: the EC50 was < 8 nM.

Regarding `CC(C)c1c(O)cc(Sc2ccccc2)cc1O` [Compound 129, 2-isopropyl-5-(phenylthio) benzene-1,3-diol], the EC50 is > 400 nM.

As for `CC(=O)c1c(O)cc(/C=C/c2ccccc2)cc1O` [Compound 108], the EC50 is 143 nM.

In the case of `CC(C)c1ncc(-c2ccc(F)c3ccc(C(F)(F)F)nc23)cc1O` [Compound 64], the EC50 was > 100 nM.

For `COc1cc2ncccc2cc1-c1cnc(C(C)C)c(O)c1` [Compound 72], the EC50 is > 100 nM.

For the compound `COc1cc2ncccc2cc1-c1cc(O)c(C(C)C)c(O)c1` [Compound 21], the EC50 is > 100 nM.

Turning to `Cc1cnc2ccc(-c3cnc(C(C)C)c(O)c3)cc2c1` [Compound 77], the EC50 is > 100 nM.

On to `CC(C)c1ncc(-c2ccnc3c(F)cccc23)cc1O` [Compound 54], for which the EC50 is > 100 nM.

Turning to `CC(C)c1c(O)cc(-c2cccc3ccc(C(=O)O)nc23)cc1O` [Compound 25], the EC50 was > 100 nM.

Turning to `CC(C)n1c(O)cc(/C=C/c2ccccc2)cc1=O` [Compound 105, (E)-6-hydroxy-1-isopropyl-4-styrylpyridin-2(1H)-one], the EC50 is > 400 nM.

With `CC(C)c1ncc(-c2cc(F)c3ncccc3c2F)cc1O` [Compound 63], the EC50 is > 100 nM.

In the case of `CC(C)c1c(O)cc(-c2ccnc3c(F)cccc23)cc1O` [Compound 3], the EC50 was > 100 nM.

Take `CC(C)c1c(O)cc(-c2cc(O)cc3cccnc23)cc1O` [Compound 15]: the EC50 was > 100 nM.

For `CNc1ccnc2ccc(-c3cc(O)c(C(C)C)c(O)c3)cc12` [Compound 16], the EC50 is > 100 nM.

For `CC(C)c1c(O)cc(-c2cc3cccnc3cc2F)cc1O` [Compound 7], the EC50 is > 100 nM.

Regarding `CC(C)c1ncc(-c2cc(C(F)(F)F)c3cc(F)ccc3n2)cc1O` [Compound 52], the EC50 is > 100 nM.
